Reference: patent US4084006A, “Method of using dialkylphenols an antiviral agents” (priority 1977, dated 1978)

System: chronic respiratory disease (CRD)
Experiment: Treatment of chronic respiratory disease (CRD) in spontaneously hypertensive (SH) rats; on Dead animals: tested at 0.001 ppm; on Ill animals: tested at 0.001 ppm; on Total number of rats: tested at 0.001 ppm; on Well animals: tested at 0.001 ppm; on animals showing a trace of secretions around their necks: tested at 0.001 ppm; on rats alive in the treated group: tested at 0.001 ppm
Assay type: in vivo, rat (SH)
Procedure: Treatment of Chronic Respiratory Disease (CRD) in laboratory rats: chronic respiratory disease symptoms include coughing and wheezing accompanied by nasal secretions.
One-half of a colony of spontaneously hypertensive (SH) rats was treated with 2,4-dimethylphenol in their drinking water at a concentration of one part per billion. The other half of this colony was given only tap water, and both groups observed for 76 days. The second experiment was with a highly inbred strain (GM) of rats that were about to expire, because of chronic respiratory infection. […] Both groups, the SH rats and the GM rats, were not breeding because of their infections and were in seriously poor health.
They were only 42 SH rats left in the colony. They were divided into two groups of 21 rats each. Approximately one-half the sick rats were selected for each group. […] This was best observed as a brown secretion from the nose and wiped around the neck by the rat's front paws. The experimental group was treated continuously with one part per billion (1 PPB) of 2,4-dimethylphenol in their drinking fluid. Certain of these rats were so ill that they were near death when the experiment was started and they died in spite of treatment.

[1] = day 14, 1 PPB in drinking water, SH rats
[2] = day 22, 1 PPB in drinking water, SH rats
[3] = day 29, 1 PPB in drinking water, SH rats
[4] = day 36, 1 PPB in drinking water, SH rats
[5] = day 43, 1 PPB in drinking water, SH rats

With Cc1ccc(O)c(C)c1 [2,4-dimethylphenol] the Dead animals [1] was 1, the Ill animals [1] was 8 and the Well animals [1] was 12. The “Total number of rats” value (day 14, 1 PPB in drinking water, SH rats, 21 at start) was 21, the Dead animals [2] was 1 and the Ill animals [2] was 7. For the same compound, the Well animals [2] was 12, the “Total number of rats” value (day 22, 1 PPB in drinking water, SH rats, 21 at start) was 20 and the Dead animals [3] was 2. For the same compound, the Ill animals [3] was 4, the Well animals [3] was 13 and the “Total number of rats” value (day 29, 1 PPB in drinking water, SH rats, 21 at start) was 19. The Ill animals [4] was 5, the Well animals [4] was 12 and the “Total number of rats” value (day 36, 1 PPB in drinking water, SH rats, 21 at start) was 17. For the same compound, the Ill animals [5] was 5, the Well animals [5] was 12 and the “Total number of rats” value (day 43, 1 PPB in drinking water, SH rats, 21 at start) was 17. For the same compound, the Well animals (day 76, 1 PPB in drinking water, SH rats) was 12, the “Total number of rats” value (day 76, 1 PPB in drinking water, SH rats, 21 at start) was 17 and the Ill animals (day 76, 1 PPB in drinking water, SH rats, minimal infection) was 5. For the same compound, the “infection in the five ill rats” value (day 76, visual observation, 1 PPB, SH rats) was “minimal infection from visual observation”, the “rats alive in the treated group” value (end of 76 days, 1 PPB in drinking water, SH rats, 21 at start) was 17 and the “animals showing a trace of secretions around their necks” value (end of 76 days, of 17 rats alive, 1 PPB, SH rats) was 5. The “breeding and colony health” value (more than 2 years, 1 PPB in drinking fluid, combined SH groups) was “These animals began to breed, and the colony is now healthy”.
